System: plants
Experiment: Test D pre-emergence, other plants of Tables D1 and D3
Format: in vivo
Details: pre-emergence, 100=total damage, 0=no damage
How it was run: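 Seeds treated with herbicide safener; sown in soil; glasshouse, 16 h light, 65% humidity. Sprayed day 1 (pre) or ~day 12 (post). Spray in 0.2% v/v adjuvant. Scored 0–100 damage: 20 DAA pre, 15 d post.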

CN1CC(c2cc(C(F)(F)F)n(C)n2)C(C(=O)Nc2ccc(F)nc2F)C1=O (racemic) [Compound 22]
damage to plant, ALOMY (rate 15, 20 DAA): 0 | damage to plant, AVEFA (rate 15, 20 DAA): 0 | damage to plant, BEAVA (rate 15, 20 DAA): 0 | damage to plant, BROTE (rate 15, 20 DAA): 0 | damage to plant, BRSNN (rate 15, 20 DAA): 0 | damage to plant, CHEAL (rate 15, 20 DAA): 0 | damage to plant, GALAP (rate 15, 20 DAA): 0 | damage to plant, HORVW (rate 15, 20 DAA): 0 | damage to plant, KCHSC (rate 15, 20 DAA): 0 | damage to plant, LOLPE (rate 15, 20 DAA): 0 | damage to plant, POAAN (rate 15, 20 DAA): 0 | damage to plant, POLCO (rate 15, 20 DAA): 0 | damage to plant, SINAR (rate 15, 20 DAA): 0 | damage to plant, STEME (rate 15, 20 DAA): 0 | damage to plant, VERPE (rate 15, 20 DAA): 0 | damage to plant, ALOMY (rate 30, 20 DAA): 0 | damage to plant, AVEFA (rate 30, 20 DAA): 0 | damage to plant, BEAVA (rate 30, 20 DAA): 0 | damage to plant, BROTE (rate 30, 20 DAA): 0 | damage to plant, BRSNN (rate 30, 20 DAA): 0 | damage to plant, CHEAL (rate 30, 20 DAA): 0 | damage to plant, GALAP (rate 30, 20 DAA): 0 | damage to plant, HORVW (rate 30, 20 DAA): 0 | damage to plant, KCHSC (rate 30, 20 DAA): 0 | damage to plant, LOLPE (rate 30, 20 DAA): 0 | damage to plant, POAAN (rate 30, 20 DAA): 0 | damage to plant, POLCO (rate 30, 20 DAA): 0 | damage to plant, SINAR (rate 30, 20 DAA): 0 | damage to plant, STEME (rate 30, 20 DAA): 0 | damage to plant, VERPE (rate 30, 20 DAA): 0 | damage to plant, ALOMY (rate 60, 20 DAA): 0 | damage to plant, AVEFA (rate 60, 20 DAA): 0 | damage to plant, BEAVA (rate 60, 20 DAA): 0 | damage to plant, BROTE (rate 60, 20 DAA): 0 | damage to plant, BRSNN (rate 60, 20 DAA): 0 | damage to plant, CHEAL (rate 60, 20 DAA): 20 | damage to plant, GALAP (rate 60, 20 DAA): 0 | damage to plant, HORVW (rate 60, 20 DAA): 0 | damage to plant, KCHSC (rate 60, 20 DAA): 0 | damage to plant, LOLPE (rate 60, 20 DAA): 0 | damage to plant, POAAN (rate 60, 20 DAA): 0 | damage to plant, POLCO (rate 60, 20 DAA): 0 | damage to plant, SINAR (rate 60, 20 DAA): 0 | damage to plant, STEME (rate 60, 20 DAA): 10 | damage to plant, VERPE (rate 60, 20 DAA): 0 | damage to plant, ALOMY (rate 130, 20 DAA): 0 | damage to plant, AVEFA (rate 130, 20 DAA): 0 | damage to plant, BEAVA (rate 130, 20 DAA): 0 | damage to plant, BROTE (rate 130, 20 DAA): 0 | damage to plant, BRSNN (rate 130, 20 DAA): 0 | damage to plant, CHEAL (rate 130, 20 DAA): 10 | damage to plant, GALAP (rate 130, 20 DAA): 0 | damage to plant, HORVW (rate 130, 20 DAA): 0 | damage to plant, KCHSC (rate 130, 20 DAA): 0 | damage to plant, LOLPE (rate 130, 20 DAA): 10 | damage to plant, POAAN (rate 130, 20 DAA): 20 | damage to plant, POLCO (rate 130, 20 DAA): 0 | damage to plant, SINAR (rate 130, 20 DAA): 0 | damage to plant, STEME (rate 130, 20 DAA): 10 | damage to plant, VERPE (rate 130, 20 DAA): 20 | damage to plant, ALOMY (rate 250, 20 DAA): 0 | damage to plant, AVEFA (rate 250, 20 DAA): 0 | damage to plant, BEAVA (rate 250, 20 DAA): 0 | damage to plant, BROTE (rate 250, 20 DAA): 0 | damage to plant, BRSNN (rate 250, 20 DAA): 0 | damage to plant, CHEAL (rate 250, 20 DAA): 80 | damage to plant, GALAP (rate 250, 20 DAA): 0 | damage to plant, HORVW (rate 250, 20 DAA): 0 | damage to plant, KCHSC (rate 250, 20 DAA): 0 | damage to plant, LOLPE (rate 250, 20 DAA): 20 | damage to plant, POAAN (rate 250, 20 DAA): 40 | damage to plant, POLCO (rate 250, 20 DAA): 10 | damage to plant, SINAR (rate 250, 20 DAA): 0 | damage to plant, STEME (rate 250, 20 DAA): 30 | damage to plant, VERPE (rate 250, 20 DAA): 30 | damage to plant, ALOMY (rate 500, 20 DAA): 20 | damage to plant, AVEFA (rate 500, 20 DAA): 0 | damage to plant, BEAVA (rate 500, 20 DAA): 0 | damage to plant, BROTE (rate 500, 20 DAA): 0 | damage to plant, BRSNN (rate 500, 20 DAA): 0 | damage to plant, CHEAL (rate 500, 20 DAA): 40 | damage to plant, GALAP (rate 500, 20 DAA): 0 | damage to plant, HORVW (rate 500, 20 DAA): 0 | damage to plant, KCHSC (rate 500, 20 DAA): 0 | damage to plant, LOLPE (rate 500, 20 DAA): 30 | damage to plant, POAAN (rate 500, 20 DAA): 60 | damage to plant, POLCO (rate 500, 20 DAA): 20 | damage to plant, SINAR (rate 500, 20 DAA): 0 | damage to plant, STEME (rate 500, 20 DAA): 40 | damage to plant, VERPE (rate 500, 20 DAA): 100

Reference: patent US20220281848A1, “PYRAZOLE-SUBSTITUTED PYRROLIDINONES AS HERBICIDES” (FMC Corporation, priority 2019, published 2022)
